# In paper PMC6017444, “Effects of Lysozyme on the Activity of Ionic of Fluoroquinolone Species” (Molecules : A Journal of Synthetic Chemistry and Natural …, 2018):
# Target: T1, lysozyme (Lyz) from chicken egg white (Gallus gallus, UniProt P00698)
# T1 construct: native mature protein from egg white (signal peptide removed), 129 residues, four disulfides, commercial (Sigma-Aldrich), used without further purification
# Test: quenching of ligand fluorescence by protein (excitation […] nm), Stern-Volmer, static
# Details: pH 7.4, 298 K, 10 mM Trizma; zwitterionic species; KSV taken as binding constant
# T1 sequence (P00698 19-147): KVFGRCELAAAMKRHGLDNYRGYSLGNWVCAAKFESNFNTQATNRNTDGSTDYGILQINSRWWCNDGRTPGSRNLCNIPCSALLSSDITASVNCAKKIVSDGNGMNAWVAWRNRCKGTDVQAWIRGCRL
smiles,measurement,value
"O=C(O)c1cn(C2CC2)c2cc(N3CCNCC3)c(F)cc2c1=O [Ciprofloxacin, 1-cyclopropyl-6-fluoro-4-oxo-7-(piperazin-1-yl)-1,4-dihydroquinoline-3-carboxylic acid]",Stern-Volmer binding constant (KSV),(1.80 ± 0.01) × 10^4 L mol^-1
C[C@H]1COc2c(N3CCN(C)CC3)c(F)cc3c(=O)c(C(=O)O)cn1c23 [Levofloxacin],Stern-Volmer binding constant (KSV),(0.27 ± 0.02) × 10^4 L mol^-1
